The values below come from US20250075235A1, “PRODUCTION OF ETHANOL WITH ONE OR MORE CO-PRODUCTS IN YEAST” (Braskem S.A., priority 2020, published 2025).

In assay [1] the test system is industrial ethanol-producing yeast strain PE-2. The experiment in a line: Alcohol tolerance experiment: sugar (glucose) consumption of yeast cultures with added alcohols. The format is cell-based, Saccharomyces cerevisiae. The note with it: for Sugar Consumption: PE-2, YNB medium, 40 g/L glucose, 32° C., 8-9 hours, no consumption = lethal concentration; for Toxicity related to ethanol (times more inhibition than ethanol): ratio of sugar consumption inhibition per unit of alcohol to that of ethanol; for Sugar consumption inhibition per unit of alcohol regarding the Control (+) condition (no alcohol added) / Slope (linear regression of sugar consumption inhibition against alcohol concentration): samples two hours after inoculation; for Slope (linear regression of sugar consumption inhibition against alcohol concentration): alcohol concentration in g/L. Here is the method:
An alcohol tolerance experiment was conducted to understand the negative effects of n-propanol (i.e., 1-propanol), 2-propanol, and 2-butanol compared to ethanol in Saccharomyces cerevisiae. Ethanol, which is a natural product (or native product) produced during sugar-ethanol fermentation is generally well-tolerated by yeast such as S. cerevisiae. However, existing approaches to produce non-natural chemicals such as C3, C4, or C5 alcohols, ketones, organic acids, or other non-natural products (e.g., alcohols other than ethanol) by using genetically modified yeast are usually impacted negatively by the higher toxicity compared to ethanol of such non-natural chemicals or alcohols (e.g., n-propanol and 2-propanol) to the yeast cell-growth and/or performance.
Several concentrations of n-propanol, 2-propanol, 2-butanol and ethanol was tested in yeast cultures. The experiment was conducted using the industrial ethanol-producing yeast strain PE-2 in a 250 mL shaken flask with 50 mL of YNB medium having 40g/L glucose at 32° C. The culture was conducted during 8-9 hours with an initial OD600 nm=12 (OD=optical density). Samples were taken in adequate intervals and analyzed by HPLC to measure glucose, ethanol, n-propanol, 2-propanol and 2-butanol. The experiment was performed according to the parameters in Table 13, in duplicate. The conditions at which no sugar consumption was observed were considered a lethal concentration and were excluded from the analysis.
The percentage of glucose consumption inhibition was assessed for various concentrations of alcohols. Samples were tested two hours after inoculation. At this point, glucose had not been totally consumed.

Assay [2] shares this test system. Kind of assay: Laboratory simulation of yeast sugar-ethanol fermentation with exogenously added alcohols. The format is cell-based, Saccharomyces cerevisiae. To be noted: 1 L bioreactor, 224 g/L glucose, pH 4.5, 32° C., 70 hours; about 16 g alcohol added. Here is the method:
The experiment was performed using a 1 L bioreactor with 0.7 L as a final volume. The pH was controlled at 4.5 by adding NaOH 25% w/w, 32° C. temperature and 300 rpm stirring. The industrial ethanol-producing yeast strain used was PE-2, with an initial pitch of 0.7 g/L DWC and the culture medium was YNB without amino acids. The final sugar concentration was 224 g/L glucose. The experiment was performed under aseptic conditions. The bioreactor was first filled with 650 ml of YNB medium plus sugar, and after pH and temperature stabilization, a suspension of 50 mL with the yeast inoculum was added into the bioreactor. […] Each solution followed the profile: 10 hours since inoculation, 0.2 mL/min; from 11 hours to 15 hours, 0.4 mL/min; from 16 hours to 40 hours, 0.6 mL/min; and from 41 hours to 46 hours, 0.2 mL/min. This profile was added to simulate an ethanol production profile of PE-2 yeast. The fermentation was ended with 70 hours of fermentation run.

Turning to 2-butanol, the “Sugar Consumption” value was “Yes” in assay [1] (alcohol 20 g/L), “Yes” in assay [1] (alcohol 40 g/L), “No” in assay [1] (alcohol 60 g/L) and “No” in assay [1] (alcohol 80 g/L). In addition, in assay [1], the “Toxicity related to ethanol (times more inhibition than ethanol)” value was found to be 2.94. In addition, the “Sugar consumption inhibition per unit of alcohol regarding the Control (+) condition (no alcohol added)” value in assay [1] is listed as 1.82% per g · L^−1 of alcohol. In assay [1], the “Slope (linear regression of sugar consumption inhibition against alcohol concentration)” value was determined as 0.0182.
Turning to `CC(C)O` [2-Propanol, isopropyl alcohol], the “Sugar Consumption” value in assay [1] (alcohol 20 g/L), in assay [1] (alcohol 40 g/L), in assay [1] (alcohol 60 g/L) and in assay [1] (alcohol 80 g/L) was “Yes” in each case. Moreover, the “Toxicity related to ethanol (times more inhibition than ethanol)” value in assay [1] came to 1.45. The “Sugar consumption inhibition per unit of alcohol regarding the Control (+) condition (no alcohol added)” value in assay [1] is on record as 0.90% per g · L^−1 of alcohol. Moreover, the “Slope (linear regression of sugar consumption inhibition against alcohol concentration)” value in assay [1] was 0.009.
`CCO` [Condition 1, ethanol]: in assay [2], the Ethanol produced is reported as 80.9 g, the Ethanol yield is given as 0.5 g/g and the Volumetric productivity is reported as 1.4 g/Lh.
Take `CCO` [Ethanol, ethanol]: the “Sugar Consumption” value in assay [1] (alcohol 20 g/L), in assay [1] (alcohol 40 g/L), in assay [1] (alcohol 60 g/L), in assay [1] (alcohol 80 g/L) and in assay [1] (alcohol 120 g/L) was “Yes” each time. Further, the “Sugar consumption inhibition per unit of alcohol regarding the Control (+) condition (no alcohol added)” value in assay [1] is 0.62% per g · L^−1 of alcohol. The “Slope (linear regression of sugar consumption inhibition against alcohol concentration)” value in assay [1] was 0.0062.
Regarding n-propanol, the “Sugar Consumption” value was “Yes” in assay [1] (alcohol 20 g/L), “Yes” in assay [1] (alcohol 40 g/L), “Yes” in assay [1] (alcohol 60 g/L) and “No” in assay [1] (alcohol 80 g/L). For the same compound, the “Toxicity related to ethanol (times more inhibition than ethanol)” value in assay [1] is given as 2.16. The “Sugar consumption inhibition per unit of alcohol regarding the Control (+) condition (no alcohol added)” value in assay [1] is on record as 1.34% per g · L^−1 of alcohol. Further, in assay [1], the “Slope (linear regression of sugar consumption inhibition against alcohol concentration)” value was determined as 0.0134.
